IC50 and melting point data for 21 molecules are collected here from patent US20070219237A1, “Chromane Derivatives” (Pfizer Inc, priority 2006, published 2007).

For the first data set, the target named is T1, porcine gastric H^+/K^+-ATPase (Sus scrofa, UniProt P19156).
T1 construct: prepared from mucous membrane in fresh porcine stomachs by homogenization; from tissue; host or cells: gastric vesicles from mucous membrane of fresh porcine stomachs
T1 sequence (P19156 2-1034 limits assumed): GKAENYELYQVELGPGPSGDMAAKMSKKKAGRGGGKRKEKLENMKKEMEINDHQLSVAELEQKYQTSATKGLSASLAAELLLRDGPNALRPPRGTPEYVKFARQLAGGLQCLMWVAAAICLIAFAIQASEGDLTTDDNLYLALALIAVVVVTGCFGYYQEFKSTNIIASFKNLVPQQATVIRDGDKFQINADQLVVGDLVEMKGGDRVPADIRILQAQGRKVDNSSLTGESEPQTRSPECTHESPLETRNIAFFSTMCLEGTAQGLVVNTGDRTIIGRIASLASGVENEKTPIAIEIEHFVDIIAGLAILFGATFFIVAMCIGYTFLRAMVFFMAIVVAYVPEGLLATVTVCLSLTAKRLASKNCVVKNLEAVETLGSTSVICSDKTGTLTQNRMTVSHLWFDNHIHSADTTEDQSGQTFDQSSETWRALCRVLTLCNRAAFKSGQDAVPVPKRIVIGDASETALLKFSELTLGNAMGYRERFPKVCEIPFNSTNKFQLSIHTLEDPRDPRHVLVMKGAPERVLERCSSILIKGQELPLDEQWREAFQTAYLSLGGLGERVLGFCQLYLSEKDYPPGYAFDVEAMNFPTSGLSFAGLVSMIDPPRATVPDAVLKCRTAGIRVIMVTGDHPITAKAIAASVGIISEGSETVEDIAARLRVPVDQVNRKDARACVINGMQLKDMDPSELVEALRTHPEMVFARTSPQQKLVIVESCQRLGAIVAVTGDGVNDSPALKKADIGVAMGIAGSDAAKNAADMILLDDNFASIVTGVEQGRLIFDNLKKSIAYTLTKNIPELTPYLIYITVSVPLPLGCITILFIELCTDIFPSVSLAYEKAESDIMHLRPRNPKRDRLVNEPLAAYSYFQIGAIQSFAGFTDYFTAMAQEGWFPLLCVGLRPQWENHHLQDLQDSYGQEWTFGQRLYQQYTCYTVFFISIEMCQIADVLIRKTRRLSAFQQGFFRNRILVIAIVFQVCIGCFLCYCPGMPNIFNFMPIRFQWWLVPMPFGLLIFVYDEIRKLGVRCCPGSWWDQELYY
T1 sequence (P18434 whole entry partner): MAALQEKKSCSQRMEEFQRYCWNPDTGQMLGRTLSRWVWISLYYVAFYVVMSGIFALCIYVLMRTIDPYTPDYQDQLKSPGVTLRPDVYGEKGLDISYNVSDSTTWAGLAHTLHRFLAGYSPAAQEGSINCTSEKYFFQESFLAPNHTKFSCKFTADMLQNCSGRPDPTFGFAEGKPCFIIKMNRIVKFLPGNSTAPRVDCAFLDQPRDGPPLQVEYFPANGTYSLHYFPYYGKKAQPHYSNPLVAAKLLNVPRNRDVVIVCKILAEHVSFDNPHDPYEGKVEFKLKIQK
Put plainly: Ion-tight porcine gastric H+/K+-ATPase inhibition. Type of data set: biochemical. Particulars: ion-tight gastric vesicles, 150 mM KCl, 15 μM valinomycin, pH 7.4, 37° C., 30 minutes; read-out: IC50 of the inhibitory activity. As to the method:
The porcine gastric vesicles for Porcine gastric H^+/K^+-ATPase inhibition assays were prepared from mucous membrane in fresh porcine stomachs by homogenization with a tight-fitted polytetrafluoroethylene (Teflone®) homogenizer in 0.25 M sucrose at 4° C. The crude pellet was removed with centrifugation at 20,000 g for 30 min. Then supernatant was centrifuged at 100,000 g for 30 min. The resulting pellet was re-suspended in 0.25 M sucrose, and then subjected to density gradient centrifugation at 132,000 g for 90 min. The gastric vesicles were collected from interface on 0.25 M sucrose layer containing 7% FicollTM PM400(Amersham Biosciences). This procedure was performed in a cold room.
Ion-tight porcine gastric H^+/K^+-ATPase inhibition was measured according to the modified method described in Biochemical Pharmacology, 1988, 37, 2231-2236.
The isolated vesicles were kept in deep-freezer until use. For enzyme assay, vesicles were diluted with 3 mM MgSO4 containing 5 mM Tris (pH 7.4 at 37° C.).
Enzyme reaction was performed incubating 150 mM KCl, 3 mM Na2ATP, 3 mM MgSO4, 15 μM valinomycin and 3.0 μg of vesicles for 30 minutes at 37° C. in a final 60 μl of reaction mixture (5mM Tris, pH 7.4) with or without the test compound. Enzyme reaction was stopped by adding 10% SDS. Released inorganic phosphate from ATP was detected by incubating with mixture of 1 part of 35 mM ammonium molybdate tetrahydrate in 15 mM Zinc acetate hydrate and 4 parts of 10% ascorbic acid (pH 5.0), resulting in phosphomolybdate, which has optical density at 750 nm.
One may read the IC50 as the concentration that gives 50% inhibition. For `Cc1nc2c(NC3CCOc4ccccc43)cc(C(=O)N3CCOCC3)cn2c1CO` (single isomer, unassigned; (-)) [Example 7-2, (−)-[f8-(3,4-Dihydro-2H-chromen-4-ylamino)-2-methyl-6-(morpholin-4-ylcarbonyl)imidazo[1,2-a]pyridin-3-yl]methanol], the IC50 was 0.096 µM.

With `Cc1nc2c(NC3CCOc4cc(F)cc(F)c43)cc(C(=O)N3CCOCC3)cn2c1CO` (single isomer, unassigned; (-)) [Example 8-3, (−)-[8-[5,7-Difluoro-3,4-dihydro-2H-chromen-4-yl)amino]-2-methyl-6-(morpholin-4-ylcarbonyl)imidazo[1,2-a]pyridin-3-ylmethanol], the IC50 turned out to be 0.052 µM. In the case of `Cc1nc2c(NC3CCOc4ccccc43)cc(C(=O)N(C)C)cn2c1CO` (single isomer, unassigned; (+)) [Example 2-2, (+)-8-(3,4-Dihydro-2H-chromen-4-ylamino)-3-(hydroxymethyl)-N,N,2-trimethylimidazo[1,2-a]pyridine-6-car boxamide], the IC50 came out at 0.061 µM. The same measure, in the same setting: for `Cc1nc2c(NC3CCOc4cc(F)cc(F)c43)cc(C(=O)N3CCOCC3)cn2c1CO` (single isomer, unassigned; (+)) [Example 8-2, (+)-[8-[(5,7-Difluoro-3,4-dihydro-2H-chromen-4-yl)amino]-2-methyl-6-(morpholin-4-ylcarbonyl)imidazo[1,2-a]pyridin-3-yl]methanol] the value was 0.04 µM; for `Cc1nc2c(NC3CCOc4cc(F)cc(F)c43)cc(C(=O)N(C)C)cn2c1CO` (single isomer, unassigned) [Example 3-2], 0.037 µM; for `Cc1cccc2c1C(Nc1cc(C(=O)N3CCOCC3)cn3c(CO)c(C)nc13)CCO2` (single isomer, unassigned; (+)) [Example 6-3, (+)-[2-Methyl-8-[(5-methyl-3,4-dihydro-2H-chromen-4-yl)amino]-6-(morpholin-4-ylcarbonyl)imidazo[1,2-a]pyridin-3-yl]methanol], 0.061 µM. Same read-out and setting: for `Cc1nc2c(NC3CCOc4cc(F)cc(F)c43)cc(C(=O)N(C)C)cn2c1CO` (single isomer, unassigned) [Example 3-3] the value was 0.041 µM. Still for that read-out and setting: for `Cc1cccc2c1C(Nc1cc(C(=O)N3CCOCC3)cn3c(CO)c(C)nc13)CCO2` (single isomer, unassigned; (-)) [Example 6-2] the value was 0.043 µM.

As for `Cc1nc2c(NC3CCOc4ccccc43)cc(C(=O)N3CCOCC3)cn2c1CO` (single isomer, unassigned; (+)) [Example 7-3, (+)-[8-(3,4-Dihydro-2H-chromen-4-ylamino)-2-methyl-6-(morpholin-4-ylcarbonyl)imidazo[1,2-a]pyridin-3-yl]methanol], the IC50 was determined as 0.11 µM. For the molecule `Cc1nc2c(NC3CCOc4cccc(F)c43)cc(C(=O)N3CCOCC3)cn2c1CO` (single isomer, unassigned; (-)) [Example 9-3], the IC50 was found to be 0.061 µM. The same measure, in the same setting: next, `Cc1nc2c(NC3CCOc4cc(F)cc(F)c43)cc(C(=O)N3CCOCC3)cn2c1CO` (racemic) [Example 8-1]: 0.055 µM. The same measure, in the same setting: next, `Cc1nc2c(NC3CCOc4cccc(F)c43)cc(C(=O)N(C)C)cn2c1CO` (single isomer, unassigned; (+)) [Example 4-3, (+)-8-[(5-Fluoro-3,4-dihydro-2H-chromen-4yl)-amino]-3-(hydroxymethyl)-N,N,2-trimethylimidazo [1,2-a]pyridine-6-carboxamide]: 0.03 µM; `Cc1nc2c(NC3CCOc4cccc(F)c43)cc(C(=O)N3CCOCC3)cn2c1CO` (single isomer, unassigned; (+)) [Example 9-2]: 0.072 µM. In the case of `Cc1cccc2c1[C@@H](Nc1cc(C(=O)N(C)C)cn3c(CO)c(C)nc13)CCO2` (single isomer, unassigned) [Example 1-2], the IC50 came to 0.084 µM. Same read-out and setting: next, `Cc1nc2c(NC3CCOc4ccccc43)cc(C(=O)N(C)C)cn2c1CO` (racemic) [Example 2-1, 8-(3,4-Dihydro-2H-chromen-4-ylamino)-3-(hydroxymethyl)-N,N,2-trimethylimidazo[1,2a]pyridine-6-carboxamide]: 0.075 µM; `Cc1nc2c(NC3CCOc4ccccc43)cc(C(=O)N(C)C)cn2c1CO` (single isomer, unassigned; (-)) [Example 2-3]: 0.067 µM; `Cc1nc2c(NC3CCOc4ccccc43)cc(C(=O)N3CCOCC3)cn2c1CO` (racemic) [Example 7-1, [8-(3,4-Dihydro-2H-chromen-4-ylamino)_-2-methyl-6-(morpholin-4-ylcarbonyl)imidazo[1,2-a]pyridin-3-yl]methanol]: 0.14 µM. Same read-out and setting: next, `Cc1nc2c(NC3CCOc4cccc(F)c43)cc(C(=O)N3CCOCC3)cn2c1CO` (racemic) [Example 9-1, [8-[(5-Fluoro-3,4-dihydro-2H-chromen-4-yl)amino]-2-methyl-6-(morpholin-4-ylcarbonyl)imidazo[1,2-a]pyridin-3-yl]methanol]: 0.047 µM. Consider `Cc1nc2c(NC3CCOc4cccc(F)c43)cc(C(=O)N(C)C)cn2c1CO` (single isomer, unassigned; (-)) [Example 4-2, (−)-8-[(5-Fluoro-3,4-dihydro-2H-chromen-4-yl)amino]-3-(hydroxymethyl)-N,N,2-trimethylimidazo [1,2a]pyridine-6-carboxamide], for which the IC50 was 0.029 µM. Same read-out and setting: for `Cc1cccc2c1C(Nc1cc(C(=O)N(C)C)cn3c(CO)c(C)nc13)CCO2` (single isomer, unassigned) [Example 1-3] the value was 0.089 µM.

System in another data set: not given
Assay: not given
Details: not given
By melting point is commonly meant the temperature, or range, at which the solid turns liquid. Consider `Cc1nc2c(N[C@H]3CCOc4cc(F)cc(F)c43)cc(C(=O)N(C)C)cn2c1CO` (single isomer, unassigned) [Example 3-3], for which the melting point is 186 °C.
